In patent publication US20190374534A1, “LIQUID PHARMACEUTICAL COMPOSITIONS COMPRISING PERGOLIDE” (Boehringer Ingelheim Vetmedica GmbH, priority 2018, published 2019):
Structures can show the parent of a compound that is named as a salt.

Assay: Particle-size distribution (PSD) analysis, Malvern Mastersizer 3000
Assay type: physicochemical
Settings: certificate of analysis, FIG. 1; after spiral jet-mill micronization
From the text: PARTICLE-SIZE DISTRIBUTION (PSD) ANALYTICAL METHOD: Equipment Malvern Mastersizer 3000 equipped with Hydro MV dispersion unit Dispersant Preparation—1. Fill the dispersion unit with hexane—2. Check that the channel 1 of background signal is less than 80 and no anomalous spikes are present—3. Check the background signal: it has to be stable and complying with the following limits: Channel 1<100, Channel 20<60. Sample Preparation—Randomize the sample by manually tumbling and rolling for 30 seconds, weigh approximately 15 mg of powder in a 100 mL Erlenmeyer flask, add 2 mL of Span 85 (Sorbitane trioleate; 5% w/w water solution). A homogeneous mixture, using the tip of a small stainless steel spatula, has to be obtained. Using a Pasteur pipette add 1 mL of water and homogenize the suspension. Repeat this operation until a volume of 8-10 mL is reached. Sonicate the sample for 5 seconds in an ultrasonic bath (25 kHz). Procedure—1. Once a stable background signal is obtained, proceed with the SOP—2. Add the sample until the obscuration target is reached. Avoid droplets to fall directly into the liquid when adding the sample suspension putting the pipette tip under water—3. Initiate the measurement—4. The particle size distribution values (D10, D50 and D90) are taken directly from the Malvern screen. All three values determined for a sample are average and rounded to obtain the final values.

- median particle size: 13.3 μm
- particle size distribution D90 value: 39.4 μm
Compound: CCCN1C[C@H](CSC)C[C@@H]2c3cccc4[nH]cc(c34)C[C@H]21 [micronized pergolide mesylate, (8β)-8-[(methylthio)methyl]-6-propylergoline]
